Test results published in ChEMBL document CHEMBL3425446, “Isolation, semi-synthesis and bio-evaluation of spatane derivatives from the brown algae Stoechospermum marginatum” (Bioorg Med Chem Lett, 2015).
Values after ≈ are worked out from the molar mass of the structure shown. Active and inactive are the calls of the source. The rule behind the calls is not given here.

Columns and labels:
[1] = test system: Escherichia coli; assay: Antibacterial activity against Escherichia coli assessed as growth inhibition at 0.5 mg/ml after 24 hrs by well diffusion method; format: functional; details: read-out: DIZ
[2] = test system: Bacillus subtilis; assay: Antibacterial activity against Bacillus subtilis assessed as growth inhibition at 0.5 mg/ml after 24 hrs by well diffusion method; format: functional; details: read-out: DIZ
[3] = test system: Micrococcus luteus; assay: Antibacterial activity against Micrococcus luteus assessed as growth inhibition at 0.5 mg/ml after 24 hrs by well diffusion method; format: functional; details: read-out: DIZ
[4] = test system: Klebsiella pneumoniae; assay: Antibacterial activity against Klebsiella pneumoniae assessed as growth inhibition at 0.5 mg/ml after 24 hrs by well diffusion method; format: functional; details: read-out: DIZ
[5] = test system: Escherichia coli; assay: Antibacterial activity against Escherichia coli assessed as compound concentration required to complete growth inhibition at 8 hrs by tube dilution method; format: functional
[6] = test system: Bacillus subtilis; assay: Antibacterial activity against Bacillus subtilis assessed as compound concentration required to complete growth inhibition at 8 hrs by tube dilution method; format: functional
[7] = test system: Micrococcus luteus; assay: Antibacterial activity against Micrococcus luteus assessed as compound concentration required to complete growth inhibition at 8 hrs by tube dilution method; format: functional
[8] = test system: Klebsiella pneumoniae; assay: Antibacterial activity against Klebsiella pneumoniae assessed as compound concentration required to complete growth inhibition at 8 hrs by tube dilution method; format: functional
[9] = test system: Aspergillus niger; assay: Antifungal activity against Aspergillus niger assessed as growth inhibition at 0.5 mg/ml after 48 hrs by well diffusion method; format: functional, organism-based
[10] = test system: Aspergillus fumigatus; assay: Antifungal activity against Aspergillus fumigatus assessed as growth inhibition at 0.5 mg/ml after 48 hrs by well diffusion method; format: functional, organism-based
[11] = test system: Aspergillus terreus; assay: Antifungal activity against Aspergillus terreus assessed as growth inhibition at 0.5 mg/ml after 48 hrs by well diffusion method; format: functional, organism-based
[12] = test system: THP-1; assay: Cytotoxicity against human THP1 cells assessed as decrease in cell number after 24 hrs by MTT assay; format: functional, cell-based; details: THP-1, 24 h
[13] = Cytotoxicity against human U937 cells assessed as decrease in cell number after 24 hrs by MTT assay; format: functional, cell-based; details: U-937, 24 h
[14] = Cytotoxicity against mouse B16F10 cells assessed as decrease in cell number after 24 hrs by MTT assay; format: functional, cell-based; details: B16-F10, 24 h
[15] = test system: COLO 205; assay: Cytotoxicity against human COLO205 cells assessed as decrease in cell number after 24 hrs by MTT assay; format: functional, cell-based; details: COLO 205, 24 h
[16] = Cytotoxicity against human HL60 cells assessed as decrease in cell number after 24 hrs by MTT assay; format: functional, cell-based; details: HL-60, 24 h
[17] = test system: COLO 205; assay: Cytotoxicity against human COLO205 cells assessed as growth inhibition at 200 ug/ml after 24 hrs by MTT assay; format: functional, cell-based
[18] = test system: HL-60; assay: Cytotoxicity against human HL60 cells assessed as growth inhibition at 200 ug/ml after 24 hrs by MTT assay; format: functional, cell-based

| Structure (SMILES) | zone of inhibition at 500 µg/mL [1] [mm] | zone of inhibition at 500 µg/mL [2] [mm] | zone of inhibition at 500 µg/mL [3] [mm] | zone of inhibition at 500 µg/mL [4] [mm] | MIC [5] [µg/mL] | MIC [6] [µg/mL] | MIC [7] [µg/mL] | MIC [8] [µg/mL] | zone of inhibition [9] [mm] | zone of inhibition [10] [mm] | zone of inhibition [11] [mm] | IC50 [12] [µg/mL] | IC50 [13] [µg/mL] | IC50 [14] [µg/mL] | IC50 [15] [µg/mL] | IC50 [16] [µg/mL] | growth inhibition (GI) [17] | growth inhibition (GI) [18] |
| --- | --- | --- | --- | --- | --- | --- | --- | --- | --- | --- | --- | --- | --- | --- | --- | --- | --- | --- |
| C=C(C(=O)/C=C/C(C)=O)[C@@H]1CC(=O)[C@@]2(C)[C@@H]1[C@@H]1[C@H](C)CC[C@@H]12 | 11 | 10.3 | 0 | 11.3 | 50 (≈ 166 µM) | 50 (≈ 166 µM) | 50 (≈ 166 µM) | 50 (≈ 166 µM) | 19.3 | 22 | 19.3 | 18.1 (≈ 60.3 µM) | 7.52 (≈ 25 µM) | 3.62 (≈ 12.1 µM) | 32 (≈ 107 µM) | 48.4 (≈ 161 µM) | – | – |
| C=C(C(O)/C=C/C(C)=O)[C@@H]1C[C@@H](O)[C@@]2(C)[C@@H]1[C@@H]1[C@H](C)CC[C@@H]12 (stereo not given in full) | 17.3 | 12 | 12.7 | 11.7 | 200 (≈ 657 µM) | 200 (≈ 657 µM) | 200 (≈ 657 µM) | 100 (≈ 328 µM) | – | – | – | 38.9 (≈ 128 µM) | 13 (≈ 42.8 µM) | 17 (≈ 55.9 µM) | 42.1 (≈ 138 µM) | 42.3 (≈ 139 µM) | – | – |
| C=C(C(/C=C/C(C)(O)COC(C)=O)OC(C)=O)[C@@H]1C[C@@H](OC(C)=O)[C@@]2(C)[C@@H]1[C@@H]1[C@H](C)CC[C@@H]12 (stereo not given in full) | 21.3 | 18 | 17.3 | 16.3 | 100 (≈ 216 µM) | 100 (≈ 216 µM) | 100 (≈ 216 µM) | 200 (≈ 432 µM) | – | – | – | 188 (≈ 407 µM) | 38.4 (≈ 83.1 µM) | 54.1 (≈ 117 µM) | – | – | inactive | inactive |
| C=C(C(=O)/C=C/C(C)(O)COC(C)=O)[C@@H]1C[C@@H](O)[C@@]2(C)[C@@H]1[C@@H]1[C@H](C)CC[C@@H]12 (stereo not given in full) | 17 | 15.7 | 16.7 | 14 | 100 (≈ 266 µM) | 100 (≈ 266 µM) | 50 (≈ 133 µM) | 100 (≈ 266 µM) | – | – | – | 15.2 (≈ 40.3 µM) | 9.58 (≈ 25.4 µM) | 3.28 (≈ 8.71 µM) | 35.1 (≈ 93.3 µM) | 51.8 (≈ 138 µM) | – | – |
| C=C(C(=O)/C=C/C(C)(O)COC(C)=O)[C@@H]1C[C@@H](OC(C)=O)[C@@]2(C)[C@@H]1[C@@H]1[C@H](C)CC[C@@H]12 (stereo not given in full) | 23.7 | 21.7 | 21.7 | 19.7 | 200 (≈ 478 µM) | 100 (≈ 239 µM) | 100 (≈ 239 µM) | 200 (≈ 478 µM) | – | – | – | 33.9 (≈ 80.9 µM) | 8.8 (≈ 21 µM) | 4.41 (≈ 10.5 µM) | 26.8 (≈ 64 µM) | 35.6 (≈ 85.1 µM) | – | – |
| C=C(C[C@@H](O)C=C(C)C)[C@@H]1C[C@@H](O)[C@@]2(C)[C@@H]1[C@@H]1[C@H](C)CC[C@@H]12 | 12.3 | 13.7 | 14 | 16.7 | 100 (≈ 328 µM) | 100 (≈ 328 µM) | 100 (≈ 328 µM) | 50 (≈ 164 µM) | – | – | – | 53 (≈ 174 µM) | 51.3 (≈ 168 µM) | 46.7 (≈ 153 µM) | 72.2 (≈ 237 µM) | 41.6 (≈ 137 µM) | – | – |
| C=C(CC(C=C(C)C)OC(C)=O)[C@@H]1C[C@@H](O)[C@@]2(C)[C@@H]1[C@@H]1[C@H](C)CC[C@@H]12 (stereo not given in full) | 10.7 | 0 | 10.3 | 11.7 | 200 (≈ 577 µM) | 400 (≈ 1150 µM) | 200 (≈ 577 µM) | 200 (≈ 577 µM) | – | – | – | 50.3 (≈ 145 µM) | 60 (≈ 173 µM) | 73.2 (≈ 211 µM) | 87.3 (≈ 252 µM) | 198 (≈ 572 µM) | – | – |
| C=C(C/C=C/C(C)(C)O)[C@@H]1C[C@@H](O)[C@@]2(C)[C@@H]1[C@@H]1[C@H](C)CC[C@@H]12 | 12.7 | 13.7 | 16.3 | 16 | 100 (≈ 328 µM) | 100 (≈ 328 µM) | 100 (≈ 328 µM) | 100 (≈ 328 µM) | – | – | – | 50 (≈ 164 µM) | 42.3 (≈ 139 µM) | 174 (≈ 572 µM) | – | – | inactive | inactive |
| C=C(C(O)/C=C/C(C)(O)COC(C)=O)[C@@H]1C[C@@H](O)[C@@]2(C)[C@@H]1[C@@H]1[C@H](C)CC[C@@H]12 (mixture of isomers) | 13 | 10.3 | 12 | 12.3 | 200 | 200 | 400 | 200 | – | – | – | 67 | 144 | 99.8 | – | – | inactive | inactive |
